In patent publication US12543736B2, “Herbicidal compositions comprising mesotrione” (BASF SE, priority 2024, dated 2026):

Columns and labels:
Format in all cases: in vivo
Setaria verticillata = test: Example 3 post-emergence field trial, SETVE; settings: height 8-16 cm; for % herbicidal activity A-1 / % herbicidal activity B: 42 DAT; for % herbicidal activity: g ai/ha: A-1 18, B 105
Experimental: (§1) In the examples below, using the method of S. R. Colby (1967) “Calculating synergistic and antagonistic responses of herbicide combinations”, Weeds 15, p. 22ff., the value E, which is expected if the activity of the individual active compounds is only additive, was calculated: [formula] • where • X=percent activity using active herbicide A at an application rate a; • Y=percent activity using active herbicide B (e.g. mesotrione) at an application rate b; • E=expected activity (in %) by A+B at application rates a+b. If the value found experimentally is higher than the value E calculated according to Colby, a synergistic effect is present. Evaluation was carried out using a scale from 0 to 100. 100 means no emergence of the plants, or complete destruction of at least the above-ground parts, and 0 means no damage or normal course of growth. A good herbicidal activity is given at values of at least 70, and very good herbicidal activity is given at values of at least 85. Post-Emergence Application of Herbicide A-1 (A-1) and Mesotrione (B) in Field Trials Herbicide A-1 (342 g/l) and mesotrione (100 g/l) were, together with addition of 0.5 v/v % MSO (methylated sed oil) as adjuvant, formulated in water as distribution medium (water volume 200 l/ha) and sprayed with commercial flat fan nozzles.

Commelina benghalensis = test: Example 4 post-emergence application A-1, B and C-19, COMBE; settings: growth stage 13, 21 DAT, g ai/ha: A-1 1, B 50, C-19 30
Experimental: In the examples below, using the method of S. R. Colby (1967) “Calculating synergistic and antagonistic responses of herbicide combinations”, Weeds 15, p. 22ff., the value E, which is expected if the activity of the individual active compounds is only additive, was calculated:
[formula] • where • X=percent activity using active herbicide A at an application rate a; • Y=percent activity using active herbicide B (e.g. mesotrione) at an application rate b; • E=expected activity (in %) by A+B at application rates a+b.
If the value found experimentally is higher than the value E calculated according to Colby, a synergistic effect is present.
Evaluation was carried out using a scale from 0 to 100. 100 means no emergence of the plants, or complete destruction of at least the above-ground parts, and 0 means no damage or normal course of growth. A good herbicidal activity is given at values of at least 70, and very good herbicidal activity is given at values of at least 85.
Post-Emergence Application of Herbicide A-1 (A-1), Mesotrione (B) and Pyroxasulfone (C-19)
Herbicide A-1 (342 g/l), mesotrione (100 g/l) and pyroxasulfone (500 g/l) were, together with addition of 0.5 v/v % MSO (methylated sed oil) as adjuvant, formulated in water as distribution medium (water volume 200 l/ha) and sprayed with commercial flat fan nozzles.

Zea mays = test: Example 3 post-emergence field trial, ZEAMX
Experimental: as §1

Erigeron canadensis = test: Example 1 post-emergence greenhouse trial, ERICA; settings: growth stage 18, 21 DAT
Experimental: In the examples below, using the method of S. R. Colby (1967) “Calculating synergistic and antagonistic responses of herbicide combinations”, Weeds 15, p. 22ff., the value E, which is expected if the activity of the individual active compounds is only additive, was calculated: [formula] • where • X=percent activity using active herbicide A at an application rate a; • Y=percent activity using active herbicide B (e.g. mesotrione) at an application rate b; • E=expected activity (in %) by A+B at application rates a+b. If the value found experimentally is higher than the value E calculated according to Colby, a synergistic effect is present. The culture containers used were plastic pots containing loamy sand with approximately 3.0% of humus as substrate. The seeds of the test plants were sown separately for each species. For the post-emergence treatment, the test plants were grown to a plant height of from 3 to 15 cm, depending on the plant habit, and only then treated with the active compounds which had been suspended or emulsified in water. To this end, the test plants were either sown directly, and grown in the same containers, or they were first grown separately as seedlings and transplanted into the test containers a few days prior to treatment. Depending on the species, the plants were kept at 10-25° C. and 20-35° C., respectively. The test period extended over 2 to 4 weeks. During this time, the plants were tended and their response to the individual treatments was evaluated. Evaluation was carried out using a scale from 0 to 100. 100 means no emergence of the plants, or complete destruction of at least the above-ground parts, and 0 means no damage or normal course of growth. A good herbicidal activity is given at values of at least 70, and very good herbicidal activity is given at values of at least 85. Post-Emergence Application of Herbicide A-1 (A-1) and Mesotrione (B) in Greenhouse Trials Herbicide A-1 (50 g/l) and mesotrione (480 g/l) were, together with addition of 1 v/v % MSO (methylated sed oil) as adjuvant, formulated in water as distribution medium (water volume 200 l/ha) and sprayed with commercial flat fan nozzles.

Lolium multiflorum = test: Example 3 post-emergence field trial, LOLMU; settings: height 20-25 cm
Experimental: as §1

Panicum dichotomiflorum = test: Example 1 post-emergence greenhouse trial, PANDI; settings: growth stage 13, 21 DAT, g ai/ha: A-1 4, B 62.5
Experimental: In the examples below, using the method of S. R. Colby (1967) “Calculating synergistic and antagonistic responses of herbicide combinations”, Weeds 15, p. 22ff., the value E, which is expected if the activity of the individual active compounds is only additive, was calculated: [formula] • where • X=percent activity using active herbicide A at an application rate a; • Y=percent activity using active herbicide B (e.g. mesotrione) at an application rate b; • E=expected activity (in %) by A+B at application rates a+b. If the value found experimentally is higher than the value E calculated according to Colby, a synergistic effect is present. The culture containers used were plastic pots containing loamy sand with approximately 3.0% of humus as substrate. The seeds of the test plants were sown separately for each species. For the post-emergence treatment, the test plants were grown to a plant height of from 3 to 15 cm, depending on the plant habit, and only then treated with the active compounds which had been suspended or emulsified in water. To this end, the test plants were either sown directly, and grown in the same containers, or they were first grown separately as seedlings and transplanted into the test containers a few days prior to treatment. […] During this time, the plants were tended and their response to the individual treatments was evaluated. […]

Hordeum vulgare = test: Example 3 post-emergence field trial, HORVX; settings: height 20-25 cm
Experimental: as §1

[1] = height 27-33 cm, 7 DAT, g ai/ha: A-1 12.5, B 105
[2] = height 27-33 cm, 7 DAT, g ai/ha: A-1 12.5, B 210
[3] = height 27-33 cm, 7 DAT, g ai/ha: A-1 18, B 105
[4] = height 27-33 cm, 7 DAT, g ai/ha: A-1 18, B 210
[5] = height 27-33 cm, 21 DAT, g ai/ha: A-1 12.5, B 105
[6] = height 27-33 cm, 21 DAT, g ai/ha: A-1 12.5, B 210
[7] = height 27-33 cm, 21 DAT, g ai/ha: A-1 18, B 105
[8] = height 27-33 cm, 21 DAT, g ai/ha: A-1 18, B 210
[9] = height 27-33 cm, 28 DAT, g ai/ha: A-1 12.5, B 105
[10] = height 27-33 cm, 28 DAT, g ai/ha: A-1 12.5, B 210
[11] = height 27-33 cm, 28 DAT, g ai/ha: A-1 18, B 105
[12] = height 27-33 cm, 28 DAT, g ai/ha: A-1 18, B 210
[13] = height 40-60 cm, 7 DAT, g ai/ha: A-1 12.5, B 105
[14] = height 40-60 cm, 7 DAT, g ai/ha: A-1 12.5, B 210
[15] = height 40-60 cm, 7 DAT, g ai/ha: A-1 18, B 105
[16] = height 40-60 cm, 7 DAT, g ai/ha: A-1 18, B 210
[17] = 7 DAT, g ai/ha: A-1 12.5, B 105
[18] = 7 DAT, g ai/ha: A-1 12.5, B 210
[19] = 21 DAT, g ai/ha: A-1 12.5, B 105
[20] = 21 DAT, g ai/ha: A-1 12.5, B 210
[21] = 28 DAT, g ai/ha: A-1 12.5, B 105
[22] = 28 DAT, g ai/ha: A-1 12.5, B 210

CCOC(=O)COc1ccccc1Oc1nc(-n2c(=O)cc(C(F)(F)F)n(C)c2=O)c(F)cc1Cl [A-1, ethyl 2-[2-[[3-chloro-5-fluoro-6-[3-methyl-2,6-dioxo-4-(trifluoromethyl)pyrimidin-1-yl]-2-pyridyl]oxy]phenoxy]acetate]
% herbicidal activity A-1 (Setaria verticillata; A-1 12.5 g ai/ha (row with B 105)): 60% | % herbicidal activity A-1 (Setaria verticillata; A-1 12.5 g ai/ha (row with B 210)): 50% | % herbicidal activity (Setaria verticillata; 7 DAT): 80% | % herbicidal activity (Setaria verticillata; 21 DAT): 75% | % herbicidal activity (Commelina benghalensis): 80% | % herbicidal activity (Zea mays; [1]): 30% | % herbicidal activity (Zea mays; [2]): 45% | % herbicidal activity (Zea mays; [3]): 40% | % herbicidal activity (Zea mays; [4]): 55% | % herbicidal activity (Zea mays; [5]): 80% | % herbicidal activity (Zea mays; [6]): 85% | % herbicidal activity (Zea mays; [7]): 90% | % herbicidal activity (Zea mays; [8]): 80% | % herbicidal activity (Zea mays; [9]): 80% | % herbicidal activity (Zea mays; [10]): 80% | % herbicidal activity (Zea mays; [11]): 88% | % herbicidal activity (Zea mays; [12]): 85% | % herbicidal activity (Zea mays; [13]): 85% | % herbicidal activity (Zea mays; [14]): 85% | % herbicidal activity (Zea mays; [15]): 85% | % herbicidal activity (Zea mays; [16]): 85% | % herbicidal activity (Erigeron canadensis; g ai/ha: A-1 0.5, B 62.5): 60% | % herbicidal activity (Erigeron canadensis; g ai/ha: A-1 1, B 62.5): 80% | % herbicidal activity (Lolium multiflorum; [17]): 60% | % herbicidal activity (Lolium multiflorum; [18]): 60% | % herbicidal activity (Lolium multiflorum; 7 DAT, g ai/ha: A-1 18, B 105): 65% | % herbicidal activity (Lolium multiflorum; 7 DAT, g ai/ha: A-1 18, B 210): 70% | % herbicidal activity (Lolium multiflorum; 21 DAT, g ai/ha: A-1 18, B 210): 40% | % herbicidal activity (Lolium multiflorum; 28 DAT, g ai/ha: A-1 18, B 210): 40% | % herbicidal activity (Panicum dichotomiflorum): 95% | % herbicidal activity A-1 (Hordeum vulgare; 42 DAT, A-1 12.5 g ai/ha): 95% | % herbicidal activity (Hordeum vulgare; [17]): 70% | % herbicidal activity (Hordeum vulgare; [18]): 60% | % herbicidal activity (Hordeum vulgare; 7 DAT, g ai/ha: A-1 18, B 105): 80% | % herbicidal activity (Hordeum vulgare; 7 DAT, g ai/ha: A-1 18, B 210): 70% | % herbicidal activity (Hordeum vulgare; [19]): 70% | % herbicidal activity (Hordeum vulgare; [20]): 60% | % herbicidal activity (Hordeum vulgare; 21 DAT, g ai/ha: A-1 18, B 105): 85% | % herbicidal activity (Hordeum vulgare; 21 DAT, g ai/ha: A-1 18, B 210): 70% | % herbicidal activity (Hordeum vulgare; [21]): 70% | % herbicidal activity (Hordeum vulgare; [22]): 70% | % herbicidal activity (Hordeum vulgare; 28 DAT, g ai/ha: A-1 18, B 105): 90% | % herbicidal activity (Hordeum vulgare; 28 DAT, g ai/ha: A-1 18, B 210): 70%

CS(=O)(=O)c1ccc(C(=O)C2C(=O)CCCC2=O)c([N+](=O)[O-])c1 [B, mesotrione]
% herbicidal activity B (Setaria verticillata; B 105 g ai/ha): 30% | % herbicidal activity B (Setaria verticillata; B 210 g ai/ha): 20% | % herbicidal activity (Setaria verticillata; 7 DAT): 50% | % herbicidal activity (Setaria verticillata; 21 DAT): 35% | % herbicidal activity (Commelina benghalensis): 90% | % herbicidal activity (Zea mays; [1]): 0% | % herbicidal activity (Zea mays; [2]): 0% | % herbicidal activity (Zea mays; [3]): 0% | % herbicidal activity (Zea mays; [4]): 0% | % herbicidal activity (Zea mays; [5]): 0% | % herbicidal activity (Zea mays; [6]): 0% | % herbicidal activity (Zea mays; [7]): 0% | % herbicidal activity (Zea mays; [8]): 0% | % herbicidal activity (Zea mays; [9]): 0% | % herbicidal activity (Zea mays; [10]): 0% | % herbicidal activity (Zea mays; [11]): 0% | % herbicidal activity (Zea mays; [12]): 0% | % herbicidal activity (Zea mays; [13]): 5% | % herbicidal activity (Zea mays; [14]): 5% | % herbicidal activity (Zea mays; [15]): 5% | % herbicidal activity (Zea mays; [16]): 5% | % herbicidal activity (Erigeron canadensis; g ai/ha: A-1 0.5, B 62.5): 65% | % herbicidal activity (Erigeron canadensis; g ai/ha: A-1 1, B 62.5): 65% | % herbicidal activity (Lolium multiflorum; [17]): 30% | % herbicidal activity (Lolium multiflorum; [18]): 30% | % herbicidal activity (Lolium multiflorum; 7 DAT, g ai/ha: A-1 18, B 105): 30% | % herbicidal activity (Lolium multiflorum; 7 DAT, g ai/ha: A-1 18, B 210): 30% | % herbicidal activity (Lolium multiflorum; 21 DAT, g ai/ha: A-1 18, B 210): 30% | % herbicidal activity (Lolium multiflorum; 28 DAT, g ai/ha: A-1 18, B 210): 30% | % herbicidal activity (Panicum dichotomiflorum): 0% | % herbicidal activity B (Hordeum vulgare; 42 DAT, B 210 g ai/ha): 0% | % herbicidal activity (Hordeum vulgare; [17]): 20% | % herbicidal activity (Hordeum vulgare; [18]): 0% | % herbicidal activity (Hordeum vulgare; 7 DAT, g ai/ha: A-1 18, B 105): 20% | % herbicidal activity (Hordeum vulgare; 7 DAT, g ai/ha: A-1 18, B 210): 0% | % herbicidal activity (Hordeum vulgare; [19]): 20% | % herbicidal activity (Hordeum vulgare; [20]): 0% | % herbicidal activity (Hordeum vulgare; 21 DAT, g ai/ha: A-1 18, B 105): 20% | % herbicidal activity (Hordeum vulgare; 21 DAT, g ai/ha: A-1 18, B 210): 0% | % herbicidal activity (Hordeum vulgare; [21]): 20% | % herbicidal activity (Hordeum vulgare; [22]): 20% | % herbicidal activity (Hordeum vulgare; 28 DAT, g ai/ha: A-1 18, B 105): 20% | % herbicidal activity (Hordeum vulgare; 28 DAT, g ai/ha: A-1 18, B 210): 20%
